Laboratory results taken from patent US12522607B2, “Substituted pyrazolo[3,4-d]pyrimidines as wee-1 inhibitors” (WIGEN BIOMEDICINE TECHNOLOGY (SHANGHAI) CO., LTD., priority 2020, dated 2026).

Experiments:
HT29 cells = assay: Antiproliferative activity against HT29 cells (Cell Titer-Lumi, ATP content); assay type: cell-based; settings: Homo sapiens, HT-29, 72 after compound addition, read-out: HT-29 cells Anti-proliferative activity (IC50 for the inhibition against HT-29 cell growth)
Experimental: Example 343. Assay for Antiproliferative Activity Against HT29 Cells
3000 HT29 cells were seed in a 384-well plate (Fisher 142762). After the cells adhered to the wall overnight, the compounds diluted in a gradient were added. 72 later, Cell Titer-Lumi (Beyotime C0068XL) was added to determine the content of ATP in the cells. The growth of the cells was evaluated, and the IC50 for the inhibition of the compounds against cell growth was calculated.

Wee-1 kinase = molecular target: T1, Wee-1 kinase (Homo sapiens, UniProt P30291); assay: Inhibitory activity against Wee-1 kinase (Lanthra Screen Wee-1 kinase kit, Tracer 178); assay type: binding; settings: Wee-1 kinase 5 nM, Tracer 178 50 nM, 1 h room temperature
T1 construct: purchased Invitrogen
T1 sequence (P30291 whole entry): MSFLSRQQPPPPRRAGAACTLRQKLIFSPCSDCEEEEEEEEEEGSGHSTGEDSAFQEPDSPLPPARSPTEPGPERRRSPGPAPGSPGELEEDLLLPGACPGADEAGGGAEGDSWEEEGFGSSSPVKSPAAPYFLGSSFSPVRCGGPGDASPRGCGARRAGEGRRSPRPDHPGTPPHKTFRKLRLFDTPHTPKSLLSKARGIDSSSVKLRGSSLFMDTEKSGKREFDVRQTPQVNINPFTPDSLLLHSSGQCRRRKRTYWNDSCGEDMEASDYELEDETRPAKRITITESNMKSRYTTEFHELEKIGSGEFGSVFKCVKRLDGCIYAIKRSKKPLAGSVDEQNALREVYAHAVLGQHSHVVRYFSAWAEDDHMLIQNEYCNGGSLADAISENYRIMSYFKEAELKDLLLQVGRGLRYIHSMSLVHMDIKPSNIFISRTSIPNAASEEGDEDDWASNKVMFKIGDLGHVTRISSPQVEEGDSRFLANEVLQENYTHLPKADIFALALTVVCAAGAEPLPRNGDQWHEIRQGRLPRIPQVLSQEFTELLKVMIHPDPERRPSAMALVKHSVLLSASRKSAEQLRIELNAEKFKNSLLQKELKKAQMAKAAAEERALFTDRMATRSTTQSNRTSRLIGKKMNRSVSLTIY
Experimental: Example 342. Assay for Inhibitory Activity of Compounds Against Wee-1 Kinase
The inhibitory activity of compounds against Wee-1 kinase was determined by using the Lanthra Screen Wee-1 kinase kit (Invitrogen). 5 μL of the compound diluted in a gradient with DMSO, 5 μL. of Wee-1 kinase (at a final concentration of 5 nM), 5 μL of an Eu-Anti-GST antibody (at a final concentration of 2 nM) mixture and 5 μL of kinase Tracer 178 (at a final concentration of 50 nM) were mixed well. The plate was read after incubation at room temperature for one hour. For comparison with the DMSO solvent control group, IC50 for the inhibition activity of the compounds against Wee-1 kinase was calculated.

SMILES | IC50 (HT29 cells) [µM] | IC50 (Wee-1 kinase) [µM]
C=CCn1c(=O)c2cnc(Nc3ccc(N4CCC(C)(N)CC4)c(C)c3)nc2n1-c1ccc(=O)n(C(C)C)n1 [Compound 108] | ≤ 1 | ≤ 0.03
C=CCn1c(=O)c2cnc(Nc3ccc(N4CCC(C)(N)CC4)c(OC)c3)nc2n1-c1ccc(=O)n(C(C)C)n1 [Compound 109] | ≤ 1 | ≤ 0.03
C=CCn1c(=O)c2cnc(Nc3ccc(N4CCC(C)(NC)CC4)cc3)nc2n1-c1ccc(=O)n(C(C)C)n1 [Compound 110] | ≤ 1 | ≤ 0.03
C=CCn1c(=O)c2cnc(Nc3ccc(N4CCC(C)(NC)CC4)c(C)c3)nc2n1-c1ccc(=O)n(C(C)C)n1 [Compound 111] | ≤ 1 | ≤ 0.03
C=CCn1c(=O)c2cnc(Nc3ccc(N4CCC(C)(NC)CC4)c(OC)c3)nc2n1-c1ccc(=O)n(C(C)C)n1 [Compound 112] | ≤ 1 | ≤ 0.03
C=CCn1c(=O)c2cnc(Nc3ccc(N4CCC(C)(N(C)C)CC4)cc3)nc2n1-c1ccc(=O)n(C(C)C)n1 [Compound 113] | ≤ 1 | ≤ 0.03
C=CCn1c(=O)c2cnc(Nc3ccc(N4CCC(C)(N(C)C)CC4)c(C)c3)nc2n1-c1ccc(=O)n(C(C)C)n1 [Compound 114] | ≤ 1 | ≤ 0.03
C=CCn1c(=O)c2cnc(Nc3ccc(N4CCC(C)(N(C)C)CC4)c(OC)c3)nc2n1-c1ccc(=O)n(C(C)C)n1 [Compound 115] | ≤ 1 | ≤ 0.03
C=CCn1c(=O)c2cnc(Nc3ccc(N4C[C@@H](C)N[C@@H](C)C4)cc3)nc2n1-c1ccc(=O)n(C(C)C)n1 [Compound 116] | ≤ 1 | ≤ 0.03
C=CCn1c(=O)c2cnc(Nc3ccc(N4C[C@@H](C)N(C)[C@@H](C)C4)cc3)nc2n1-c1ccc(=O)n(C(C)C)n1 [Compound 117] | ≤ 1 | ≤ 0.03
C=CCn1c(=O)c2cnc(Nc3ccc(N4C[C@@H](C)N[C@@H](C)C4)c(C)c3)nc2n1-c1ccc(=O)n(C(C)C)n1 [Compound 118] | ≤ 1 | ≤ 0.03
C=CCn1c(=O)c2cnc(Nc3ccc(N4C[C@@H](C)N(C)[C@@H](C)C4)c(C)c3)nc2n1-c1ccc(=O)n(C(C)C)n1 [Compound 119] | ≤ 1 | ≤ 0.03
C=CCn1c(=O)c2cnc(Nc3ccc(N4C[C@@H](C)N[C@@H](C)C4)c(Cl)c3)nc2n1-c1ccc(=O)n(C(C)C)n1 [Compound 120] | ≤ 1 | ≤ 0.03
C=CCn1c(=O)c2cnc(Nc3ccc(N4C[C@@H](C)N(C)[C@@H](C)C4)c(Cl)c3)nc2n1-c1ccc(=O)n(C(C)C)n1 [Compound 121] | ≤ 1 | ≤ 0.03
C=CCn1c(=O)c2cnc(Nc3ccc(N4C[C@@H](C)N[C@@H](C)C4)c(C(F)(F)F)c3)nc2n1-c1ccc(=O)n(C(C)C)n1 [Compound 122] | ≤ 1 | ≤ 0.03
C=CCn1c(=O)c2cnc(Nc3ccc(N4C[C@@H](C)N(C)[C@@H](C)C4)c(C(F)(F)F)c3)nc2n1-c1ccc(=O)n(C(C)C)n1 [Compound 123] | ≤ 1 | ≤ 0.03
C=CCn1c(=O)c2cnc(Nc3ccc(N4C[C@H](C)NC[C@H]4C)cc3)nc2n1-c1ccc(=O)n(C(C)C)n1 [Compound 124] | ≤ 1 | ≤ 0.03
C=CCn1c(=O)c2cnc(Nc3ccc(N4C[C@H](C)N(C)C[C@H]4C)cc3)nc2n1-c1ccc(=O)n(C(C)C)n1 [Compound 125] | ≤ 1 | ≤ 0.03
C=CCn1c(=O)c2cnc(Nc3ccc(N4C[C@H](C)NC[C@H]4C)c(C)c3)nc2n1-c1ccc(=O)n(C(C)C)n1 [Compound 126] | ≤ 1 | ≤ 0.03
C=CCn1c(=O)c2cnc(Nc3ccc(N4C[C@H](C)N(C)C[C@H]4C)c(C)c3)nc2n1-c1ccc(=O)n(C(C)C)n1 [Compound 127] | ≤ 1 | ≤ 0.03
C=CCn1c(=O)c2cnc(Nc3ccc(N4CCN[C@@H](C)C4)cc3)nc2n1-c1ccc(=O)n(C(C)C)n1 [Compound 128] | ≤ 1 | ≤ 0.03
C=CCn1c(=O)c2cnc(Nc3ccc(N4CCN(C)[C@@H](C)C4)cc3)nc2n1-c1ccc(=O)n(C(C)C)n1 [Compound 129] | ≤ 1 | ≤ 0.03
C=CCn1c(=O)c2cnc(Nc3ccc(N4CCN[C@@H](C)C4)c(C)c3)nc2n1-c1ccc(=O)n(C(C)C)n1 [Compound 130] | ≤ 1 | ≤ 0.03
C=CCn1c(=O)c2cnc(Nc3ccc(N4CCN[C@H](C)C4)cc3)nc2n1-c1ccc(=O)n(C(C)C)n1 [Compound 131] | ≤ 1 | ≤ 0.03
C=CCn1c(=O)c2cnc(Nc3ccc(N4CCN(C)[C@H](C)C4)cc3)nc2n1-c1ccc(=O)n(C(C)C)n1 [Compound 132] | ≤ 1 | ≤ 0.03

SMILES | IC50 (HT29 cells) [µM] | IC50 (Wee-1 kinase) [µM]
C=CCn1c(=O)c2cnc(Nc3ccc(N4CCN[C@H](C)C4)c(C)c3)nc2n1-c1ccc(=O)n(C(C)C)n1 [Compound 133] | ≤ 1 | ≤ 0.03
C=CCn1c(=O)c2cnc(Nc3ccc(N4CCN(C)[C@H](C)C4)c(C)c3)nc2n1-c1ccc(=O)n(C(C)C)n1 [Compound 134] | ≤ 1 | ≤ 0.03
C=CCn1c(=O)c2cnc(Nc3ccc(N4CC5CCC(C4)N5)cc3)nc2n1-c1ccc(=O)n(C(C)C)n1 [Compound 135] | 1 to 3 | 0.03 to 0.1
C=CCn1c(=O)c2cnc(Nc3ccc(N4CC5CCC(C4)N5C)cc3)nc2n1-c1ccc(=O)n(C(C)C)n1 [Compound 136] | 1 to 3 | 0.03 to 0.1
C=CCn1c(=O)c2cnc(Nc3ccc(N4CC5CCC(C4)N5)c(C)c3)nc2n1-c1ccc(=O)n(C(C)C)n1 [Compound 137] | 1 to 3 | ≤ 0.03
C=CCn1c(=O)c2cnc(Nc3ccc(N4CC5CCC(C4)N5C)c(C)c3)nc2n1-c1ccc(=O)n(C(C)C)n1 [Compound 138] | 1 to 3 | ≤ 0.03
C=CCn1c(=O)c2cnc(Nc3ccc(N4CCN(C5CCN(C)CC5)CC4)c(C)c3)nc2n1-c1ccc(=O)n(C(C)C)n1 [Compound 139] | ≤ 1 | ≤ 0.03
C=CCn1c(=O)c2cnc(Nc3ccc(N4CCN(C5CCN(C)CC5)CC4)c(F)c3)nc2n1-c1ccc(=O)n(C(C)C)n1 [Compound 140] | ≤ 1 | ≤ 0.03
C=CCn1c(=O)c2cnc(Nc3ccc(N4CCN(C5CCN(C)CC5)CC4)c(OC)c3)nc2n1-c1ccc(=O)n(C(C)C)n1 [Compound 141] | ≤ 1 | ≤ 0.03
C=CCn1c(=O)c2cnc(Nc3ccc(N4CCC(N5CCN(C)CC5)CC4)cc3)nc2n1-c1ccc(=O)n(C(C)C)n1 [Compound 142] | ≤ 1 | ≤ 0.03
C=CCn1c(=O)c2cnc(Nc3ccc(N4CCC(N5CCN(C)CC5)CC4)c(C)c3)nc2n1-c1ccc(=O)n(C(C)C)n1 [Compound 143] | ≤ 1 | ≤ 0.03
C=CCn1c(=O)c2cnc(Nc3ccc(N4CCC(N5CCN(C)CC5)CC4)c(OC)c3)nc2n1-c1ccc(=O)n(C(C)C)n1 [Compound 144] | ≤ 1 | ≤ 0.03
C=CCn1c(=O)c2cnc(Nc3ccc(N4CCC(N5CCCCC5)CC4)cc3)nc2n1-c1ccc(=O)n(C(C)C)n1 [Compound 145] | ≤ 1 | ≤ 0.03
C=CCn1c(=O)c2cnc(Nc3ccc(N4CCC(N5CCCCC5)CC4)c(C)c3)nc2n1-c1ccc(=O)n(C(C)C)n1 [Compound 146] | ≤ 1 | ≤ 0.03
C=CCn1c(=O)c2cnc(Nc3ccc(N4CCC(N5CCCCC5)CC4)c(OC)c3)nc2n1-c1ccc(=O)n(C(C)C)n1 [Compound 147] | ≤ 1 | ≤ 0.03
C=CCn1c(=O)c2cnc(Nc3ccc(N4CCC(N5CCOCC5)CC4)cc3)nc2n1-c1ccc(=O)n(C(C)C)n1 [Compound 148] | ≤ 1 | ≤ 0.03
C=CCn1c(=O)c2cnc(Nc3ccc(N4CCC(N5CCOCC5)CC4)c(C)c3)nc2n1-c1ccc(=O)n(C(C)C)n1 [Compound 149] | ≤ 1 | ≤ 0.03
C=CCn1c(=O)c2cnc(Nc3ccc(N4CCC(N5CCOCC5)CC4)c(OC)c3)nc2n1-c1ccc(=O)n(C(C)C)n1 [Compound 150] | ≤ 1 | ≤ 0.03
C=CCn1c(=O)c2cnc(Nc3ccc(N4CCC(N5CCC(F)(F)CC5)CC4)cc3)nc2n1-c1ccc(=O)n(C(C)C)n1 [Compound 151] | ≤ 1 | ≤ 0.03
C=CCn1c(=O)c2cnc(Nc3ccc(N4CCC(N5CCC(F)(F)CC5)CC4)c(C)c3)nc2n1-c1ccc(=O)n(C(C)C)n1 [Compound 152] | ≤ 1 | ≤ 0.03
C=CCn1c(=O)c2cnc(Nc3ccc(N4CCC(N5CCC(F)(F)CC5)CC4)c(OC)c3)nc2n1-c1ccc(=O)n(C(C)C)n1 [Compound 153] | ≤ 1 | ≤ 0.03
C=CCn1c(=O)c2cnc(Nc3ccc(N4CC5(CNC5)C4)cc3)nc2n1-c1ccc(=O)n(C(C)C)n1 [Compound 154] | 1 to 3 | ≤ 0.03
C=CCn1c(=O)c2cnc(Nc3ccc(N4CC5(CNC5)C4)c(C)c3)nc2n1-c1ccc(=O)n(C(C)C)n1 [Compound 155] | ≤ 1 | ≤ 0.03
C=CCn1c(=O)c2cnc(Nc3ccc(N4CC5(CNC5)C4)c(OC)c3)nc2n1-c1ccc(=O)n(C(C)C)n1 [Compound 156] | 1 to 3 | ≤ 0.03
C=CCn1c(=O)c2cnc(Nc3ccc(N4CC5(CN(C)C5)C4)cc3)nc2n1-c1ccc(=O)n(C(C)C)n1 [Compound 157] | ≤ 1 | ≤ 0.03
